Test results as given in patent US12421242B2, “Substituted tetrahydropyrrolo-pyridinone compounds and their use in treating medical conditions” (Karuna Therapeutics, Inc., priority 2022, dated 2025).

Experiments:
hM4 receptors = target: T1, hM4 receptors (Homo sapiens, UniProt P08173); assay: Human M4 PAM pERK assay; type: cell-based; conditions: PAM mode
T1 construct: expressed in transfected cells; host or cells: CHO cells
T1 sequence (P08173 1-479): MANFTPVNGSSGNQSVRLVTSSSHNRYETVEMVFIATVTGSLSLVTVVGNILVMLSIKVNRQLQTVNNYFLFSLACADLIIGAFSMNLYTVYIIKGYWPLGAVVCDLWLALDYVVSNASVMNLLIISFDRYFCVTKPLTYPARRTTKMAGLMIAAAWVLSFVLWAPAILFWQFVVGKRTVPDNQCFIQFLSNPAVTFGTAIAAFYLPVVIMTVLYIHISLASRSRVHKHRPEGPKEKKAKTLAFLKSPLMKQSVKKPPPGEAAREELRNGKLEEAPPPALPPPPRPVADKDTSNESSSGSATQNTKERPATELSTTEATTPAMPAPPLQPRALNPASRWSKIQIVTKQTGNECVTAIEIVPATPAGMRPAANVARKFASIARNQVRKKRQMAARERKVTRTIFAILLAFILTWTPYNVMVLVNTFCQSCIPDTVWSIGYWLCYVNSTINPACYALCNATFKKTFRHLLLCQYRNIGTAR
Procedure: (§1) Chinese hamster ovary (CHO) cells expressing either hM4 or rM4 receptors were frozen in assay ready vials (5×10^6 cells/vial) after bulking-up in culture. The day before an assay, vial(s) were thawed and cells seeded in 384 well white proxiplates at 1000/well for hM4 cells and at 2000/well for rM4 cells, in 10 μL of growth media (Hams/F12 with glutamax and 10% FCS) and incubated overnight at 37° C./5% CO2.
(§2) On the following morning, the growth media was removed by ‘flicking out’ over a bin, patting the inverted plate onto tissue, and then replacing with 10 μL of wash media (Hams/F12 with glutamax and 8 mM HEPES, NB: serum free). Then, the wash media was removed in the same way and replaced with 8 μL/well of the serum free media. Plates were then re-incubated for a further 4 hours at 37° C./5% CO2.
(§3) Compounds for testing were solubilized to 10 mM in DMSO and compound addition plates, consisting of ten-point concentration response curves (CRC) in duplicate points (10 μM top concentration, […]), were prepared by acoustic dispensing and the compound management group.
(§4) After the 4-hour incubation in serum free media, a 4 μL aliquot of the 3× compound solution containing an EC20 of acetylcholine (10 nM final concentration) was added to the cell plate using a 384 well plate to plate transfer. Then, the plate lid was replaced, and the cells incubated for 5 mins at 37° C./5% CO2. Following this final incubation, all cellular processes were stopped by the addition of 4 μL/well of lysis and blocking buffer and plates were incubated for 30 minutes at RT on an orbital shaker (gentle setting). Then, a final addition of 4 μL/well of antibody detection mix, containing both the Europium-Cryptate (donor) and d2 (acceptor) tagged detection components, was added followed by a further 2-hour incubation at RT, and then the plate was read using a TR-FRET (time resolved fluorescence resonance energy transfer) based protocol.

rM4 receptors = target: T2, rM4 receptors (Rattus norvegicus, UniProt P08485); assay: Rat M4 PAM pERK assay; type: cell-based; conditions: PAM mode
T2 construct: expressed in transfected cells; host or cells: CHO cells
T2 sequence (P08485 1-478): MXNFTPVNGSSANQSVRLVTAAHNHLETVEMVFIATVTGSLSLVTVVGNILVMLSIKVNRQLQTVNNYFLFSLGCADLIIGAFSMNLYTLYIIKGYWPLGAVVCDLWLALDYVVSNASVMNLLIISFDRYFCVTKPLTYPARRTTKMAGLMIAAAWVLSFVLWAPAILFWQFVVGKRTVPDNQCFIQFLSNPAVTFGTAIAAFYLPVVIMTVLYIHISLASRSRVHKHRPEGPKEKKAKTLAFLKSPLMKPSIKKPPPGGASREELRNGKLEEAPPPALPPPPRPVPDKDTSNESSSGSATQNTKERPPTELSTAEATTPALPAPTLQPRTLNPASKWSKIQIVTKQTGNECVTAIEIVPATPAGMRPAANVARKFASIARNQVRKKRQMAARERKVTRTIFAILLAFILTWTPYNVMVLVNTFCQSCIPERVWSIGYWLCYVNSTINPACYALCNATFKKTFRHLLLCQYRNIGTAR
Procedure: as §1, §2, §3, §4

human M4 receptor = target: T3, human M4 receptor (Homo sapiens, UniProt P08173); assay: M4 GTPγS PAM assay; type: biochemical; conditions: CHO-K1 membranes expressing human M4, with EC20 acetylcholine (40 nM)
T3 construct: expressed in transfected cells
T3 sequence (P08173 1-479): T1 sequence (P08173 1-479)
Procedure: The M4 GTPγS PAM method was used. Membranes were prepared for GTPgS binding assays from CHO-K1 cells stably expressing human M4 receptor. Briefly, cells were grown in 5-layer cell culture flasks. Cells were washed with 50 mL of PBS and then dissociated with 0.05% trypsin. Dissociated cells were then collected by centrifugation at 650×g for 8 minutes at 4° C. Pellets were washed again in PBS by centrifugation and resuspended in 30 mL of 20 mM HEPES, 10 mM EDTA, pH 7.4. After sitting on ice for 30 min, membranes were collected by centrifugation at 50000×g for 15′ at 4° C., resuspended in 30 mL of 20 mM HEPES, 0.1 mM EDTA, pH 7.4 and collected again by centrifugation. Pellets were then washed twice by centrifugation in 30 mL of 20 mM HEPES, pH 7.4, and stored at −80° C. until the day of the assay. On the day of the assay, pellets were thawed on ice and resuspended in 1 mL of 20 mM HEPES, pH 7.4, 10 mM MgCl2, 100 mM NaCl using dounce homogenization. Membrane protein concentration is determined by BCA protein assay (Promega, Madison, WI) according to Promega guidelines.
On the day of the assay, serial dilutions of test PAM compounds were brought up in assay buffer (20 mM HEPES, 10 mM MgCl2, 100 mM NaCl) at 4× final assay concentration. […] of membrane homogenates (containing […] of membrane protein) were prepared in assay buffer supplemented with GDP at 4× final assay concentration (final assay concentration of GDP is 5 uM for M2 and 0.1 uM for M4) and dispensed into 96 well polypropylene, U-bottom Greiner plates. […] of vehicle or test PAM compound at 4× of final assay concentration diluted in the assay buffer were added to membrane and plates are incubated for 10-15 minutes at room temperature with gentle shaking. Then, […] of EC20 acetylcholine in assay buffer at 4× final assay concentration was added to assay plates (EC20 final assay concentrations was 40 nM for human M4).
Plates were then incubated, with shaking, for an additional 10-15 minutes. 25 mL of 0.4 nM ^35S-GTP (Perkin Elmer, Waltham, MA) in assay buffer was added to assay mixtures. The binding reaction is left on the shaker for 1 hour at room temperature. Membranes in assay reactions were then transferred to GF/C filter plates (Unifilter, Perkin Elmer) and washed three times using a FilterMate Harvester (Perkin Elmer) with cold assay buffer containing no GDP. Filter plates were then dried at 40° C. overnight followed by the addition of […] of Beta Plate Scintillation liquid. Plates are top and bottom sealed before being read on TopCount scintillation counter (Perkin Elmer, Waltham, MA).

| SMILES | EC50 (hM4 receptors) [nM] | EC50 (rM4 receptors) [nM] | EC50 (human M4 receptor) [nM] |
| --- | --- | --- | --- |
| Cc1c2c(n(C)c(=O)c1Cl)CN(C(=O)c1cnc(C3CC3)s1)C2 [Compound I-21] | < 100 | 500 to 2000 | 100 to 500 |
| Cc1c2c(n(C)c(=O)c1Cl)CN(C(=O)c1ccc(C(F)(F)F)nc1)C2 [Compound I-44] | 100 to 500 | 500 to 2000 | < 100 |
| COc1cc(=O)n(C)c2c1C(C)N(C(=O)c1cnn(C(F)(F)F)c1)C2 (stereo not drawn) [Compound I-79, 4-Methoxy-1,5-dimethyl-6-(1-(trifluoromethyl)-1H-pyrazole-4-carbonyl)-1,5,6,7-tetrahydro-2H-pyrrolo[3,4-b]pyridin-2-one] | 500 to 2000 | > 2000 | 500 to 2000 |
| Cc1c2c(n(C)c(=O)c1Cl)CN(C(=O)c1cn(CC(C)C)cn1)C2 [Compound I-19] | 500 to 2000 | > 2000 | > 2000 |
| Cc1cc(=O)n(C)c2c1C(C)N(C(=O)c1ccc3nc(C4CC4)sc3c1)C2 (single isomer, unassigned) [Compound I-99] | 100 to 500 | 500 to 2000 | 500 to 2000 |
| Cc1c2c(n(C)c(=O)c1Cl)CN(C(=O)c1ccc3nc(C(F)(F)F)sc3c1)C2 [Compound I-49] | 100 to 500 | 500 to 2000 | 500 to 2000 |
| Cc1c2c(n(C)c(=O)c1Cl)CN(C(=O)c1cnc(C(F)(F)C3CC3)s1)C2 [Compound I-67, 3-Chloro-6-(2-(cyclopropyldifluoromethyl)thiazole-5-carbonyl)-1,4-dimethyl-1,5,6,7-tetrahydro-2H-pyrrolo[3,4-b]pyridin-2-one] | < 100 | 500 to 2000 | 100 to 500 |
| COCCn1cc(C(=O)N2Cc3c(C)c(Cl)c(=O)n(C)c3C2)cn1 [Compound I-63] | > 2000 | > 2000 | > 2000 |
| Cc1cc(=O)n(C)c2c1[C@H](C)N(C(=O)c1ccc3nc(C4CC4)sc3c1)C2 [Compound I-102] | > 2000 | > 2000 | > 2000 |
| Cc1cc(=O)n(C)c2c1C(C)N(C(=O)c1ccc3nc(C4CC4)sc3c1)C2 (single isomer, unassigned) [Compound I-98] | > 2000 | > 2000 | > 2000 |
| Cc1c2c(n(C)c(=O)c1Cl)CN(C(=O)c1cc(C(F)(F)F)n(C)c1)C2 [Compound I-68, 3-Chloro-1,4-dimethyl-6-(1-methyl-5-(trifluoromethyl)-1H-pyrrole-3-carbonyl)-1,5,6,7-tetrahydro-2H-pyrrolo[3,4-b]pyridin-2-one] | < 100 | 100 to 500 | – |
| CSc1c2c(n(C)c(=O)c1C)CN(C(=O)c1cnc(CC3CC3)s1)C2 [Compound I-91] | 100 to 500 | > 2000 | – |
| Cc1cc(=O)n(C)c2c1CN(C(=O)c1cnn(C)c1)C2C (single isomer, unassigned) [Compound I-107, 1,4,7-Trimethyl-6-(1-methyl-1H-pyrazole-4-carbonyl)-1,5,6,7-tetrahydro-2H-pyrrolo[3,4-b]pyridin-2-one] | > 2000 | > 2000 | – |
| Cc1c2c(n(C)c(=O)c1Cl)CN(C(=O)c1cn(C)c(C)n1)C2 [Compound I-11] | > 2000 | – | > 2000 |
| Cc1c2c(n(C)c(=O)c1Cl)CN(C(=O)c1cnn(CC3CC3)c1)C2 [Compound I-27] | 500 to 2000 | > 2000 | – |
| Cc1c2c(n(C)c(=O)c1F)CN(C(=O)c1cnn(C(F)(F)F)c1)[C@@H]2C [Compound I-114, (R)-3-Fluoro-1,4,5-trimethyl-6-(1-(trifluoromethyl)-1H-pyrazole-4-carbonyl)-1,5,6,7-tetrahydro-2H-pyrrolo[3,4-b]pyridin-2-one] | < 100 | 100 to 500 | – |
| Cc1c2c(n(C)c(=O)c1Cl)CN(C(=O)c1ccc3ncsc3c1)C2 [Compound I-46] | < 100 | 500 to 2000 | – |

Second part, the compound after the results:

| EC50 (hM4 receptors) [nM] | EC50 (rM4 receptors) [nM] | EC50 (human M4 receptor) [nM] | SMILES |
| --- | --- | --- | --- |
| 100 to 500 | 500 to 2000 | 100 to 500 | Cc1c2c(n(C)c(=O)c1Cl)CN(C(=O)c1ccc(C(F)(F)F)cc1)C2 [Compound I-41] |
| > 2000 | – | > 2000 | Cc1c2c(n(C)c(=O)c1Cl)CN(C(=O)c1cncc(C(F)(F)F)c1)C2 [Compound I-48] |
| 100 to 500 | > 2000 | > 2000 | COc1cc(=O)n(C)c2c1C(C)N(C(=O)c1cnn(C(F)(F)F)c1)C2 (single isomer, unassigned) [Compound I-80] |
| 100 to 500 | 100 to 500 | 100 to 500 | Cc1c2c(n(CC(F)(F)F)c(=O)c1Cl)CN(C(=O)c1ccc3nc(C4CC4)sc3c1)C2 [Compound I-72] |
| > 2000 | – | > 2000 | Cc1cc(=O)n(C)c2c1CN(C(=O)c1cnn(C)c1)C2C (single isomer, unassigned) [Compound I-106] |
| 100 to 500 | > 2000 | – | Cc1c2c(n(C)c(=O)c1Cl)CN(C(=O)c1cnn(CC3COC3)c1)C2 [Compound I-54] |
| > 2000 | – | > 2000 | Cc1cc(=O)n(C)c2c1CN(C(=O)c1cnn(C)c1)C2C (stereo not drawn) [Compound I-105, 1,4,7-Trimethyl-6-(1-methyl-1H-pyrazole-4-carbonyl)-1,5,6,7-tetrahydro-2H-pyrrolo[3,4-b]pyridin-2-one] |
| < 100 | > 2000 | – | CCOc1c2c(n(C)c(=O)c1C)CN(C(=O)c1cnn(C(F)(F)F)c1)C2 [Compound I-88, 4-Ethoxy-1,3-dimethyl-6-(1-(trifluoromethyl)-1H-pyrazole-4-carbonyl)-1,5,6,7-tetrahydro-2H-pyrrolo[3,4-b]pyridin-2-one] |
